Laboratory results published in ChEMBL document CHEMBL1201862, “PubChem BioAssay data set” (2004).
Structures can show the parent of a compound that is named as a salt.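 Interpolation was linear, between the two tested concentrations surrounding the appropriate level; five concentrations were tested over 48 hours in 96-well plates. GI50 is the concentration that inhibits growth by half.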 Active and inactive are the calls of the source. Rule as the data show it: active = GI50 up to about 1.1 µM and inactive = higher.

What was measured:
Assay in all cases: NCI anticancer screen, dose series, 48 h
LOX IMVI = test system: LOX IMVI
SN12C = test system: SN12C
K562 = test system: K562
UACC-257 = test system: UACC-257
A549 = test system: A549
MOLT-4 = test system: MOLT-4
IGROV-1 = test system: IGROV-1
RPMI-8226 = test system: RPMI-8226
M14 = test system: M14
786-0 = test system: 786-0
NCI-H522 = test system: NCI-H522
SW-620 = test system: SW-620
NCI-H23 = test system: NCI-H23
TK-10 = test system: TK-10
U-251 = test system: U-251
SF-295 = test system: SF-295
SNB-19 = test system: SNB-19

Measured: GI50

CCOC(=O)N1CCN(P(=O)(Nc2ccc3[nH]c(NC(=O)OC)nc3c2)Oc2ccccc2)CC1 (stereo unspecified)
inactive: LOX IMVI > 100 µM | SN12C > 100 µM | K562 35 µM | UACC-257 > 100 µM | A549 > 100 µM | MOLT-4 > 100 µM | IGROV-1 > 100 µM | RPMI-8226 81.8 µM | M14 > 100 µM | 786-0 > 100 µM | NCI-H522 37.5 µM | SW-620 > 100 µM | NCI-H23 > 100 µM | TK-10 > 100 µM | U-251 > 100 µM

CCCCCCCCCCCCCCNCC(OCC)OCC
inactive: LOX IMVI 16.3 µM | SN12C 13.7 µM | UACC-257 16.7 µM | A549 19.4 µM | SF-295 16.7 µM | IGROV-1 15.2 µM | M14 14.1 µM | 786-0 16.9 µM | NCI-H522 3.66 µM | SW-620 15.3 µM | NCI-H23 16.1 µM | TK-10 17.4 µM | U-251 15.1 µM | SNB-19 16.5 µM

Cc1ccc(NC(=O)CCC/C(CC(=O)c2ccc(Br)cc2)=N/NC(=O)CC#N)cc1
inactive: LOX IMVI > 100 µM | SN12C > 100 µM | UACC-257 > 100 µM | A549 > 100 µM | SF-295 > 100 µM | MOLT-4 > 100 µM | IGROV-1 > 100 µM | RPMI-8226 > 100 µM | M14 > 100 µM | 786-0 > 100 µM | SW-620 > 100 µM | NCI-H23 > 100 µM | TK-10 > 100 µM | U-251 > 100 µM | SNB-19 > 100 µM

COc1cc2c(cc1OC)C(C(CO)CO)N(CC(O)CCl)CC2 (stereo unspecified)
inactive: LOX IMVI > 100 µM | K562 > 100 µM | UACC-257 > 100 µM | A549 > 100 µM | SF-295 > 100 µM | MOLT-4 > 100 µM | IGROV-1 > 100 µM | RPMI-8226 > 100 µM | M14 > 100 µM | 786-0 > 100 µM | NCI-H522 > 100 µM | SW-620 > 100 µM | NCI-H23 > 100 µM | TK-10 > 100 µM | U-251 > 100 µM | SNB-19 > 100 µM

CC(NC(C)(C)C)C(=O)c1cccc(Cl)c1 (stereo unspecified) [BUPROPION HYDROCHLORIDE]
inactive: LOX IMVI > 100 µM | SN12C > 100 µM | K562 > 100 µM | UACC-257 > 100 µM | A549 > 100 µM | SF-295 > 100 µM | MOLT-4 > 100 µM | IGROV-1 > 100 µM | RPMI-8226 > 100 µM | M14 > 100 µM | 786-0 > 100 µM | NCI-H522 > 100 µM | SW-620 > 100 µM | NCI-H23 > 100 µM | TK-10 > 100 µM | U-251 > 100 µM
